Values after ≈ are worked out from the molar mass of the structure shown.
What was measured:
[1] = tested on: Staphylococcus aureus X400; type: cell-based; conditions: methicillin-resistant strain; agar dilution; 2, 5, 17, 22 median of three tests; paired values two experiments
[2] = tested on: Streptococcus pneumoniae Group D X66; type: cell-based; conditions: agar dilution; 2, 5, 17, 22 median of three tests; paired values two experiments
[3] = tested on: Staphylococcus epidermidis EPI2; type: cell-based; conditions: agar dilution; 2, 5, 17, 22 median of three tests; paired values two experiments
[4] = tested on: Staphylococcus aureus X1.1; type: cell-based; conditions: agar dilution; 2, 5, 17, 22 median of three tests; paired values two experiments
[5] = tested on: Micrococcus luteus ATCC 9341; assay: agar-plate disc-diffusion test; type: cell-based; conditions: suspended in water at 1 mg/ml; 7 mm disc; 24-48 hours at 25-37° C.
[6] = tested on: Staphylococcus aureus ATCC 6738P; assay: agar-plate disc-diffusion test; type: cell-based; conditions: suspended in water at 1 mg/ml; 7 mm disc; 24-48 hours at 25-37° C.
[7] = tested on: Streptococcus pyogenes C203; type: cell-based; conditions: agar dilution; 2, 5, 17, 22 median of three tests; paired values two experiments
toxicity test (LD50) = conditions: mouse, in vivo, iv, mice; administered intravenously
[8] = tested on: Staphylococcus aureus V41; type: cell-based; conditions: penicillin-resistant strain; agar dilution; 2, 5, 17, 22 median of three tests; paired values two experiments
[9] = tested on: Staphylococcus epidermidis EPI1; type: cell-based; conditions: agar dilution; 2, 5, 17, 22 median of three tests; paired values two experiments
[10] = tested on: Bacillus subtilis ATCC 6633; assay: agar-plate disc-diffusion test; conditions: 7 mm disc, 24-48 hours at 25-37° C.; for Size of Zone of Inhibition (mm) B. subtilis ATCC 6633, grown on minimal nutrient agar: 1 mg/ml; for Size of Zone of Inhibition (mm) Bacillus subtilis ATCC 6633: suspended in water at 1 mg/ml
Method: ^a Compounds were suspended in water at a concentration of 1 mg/ml; a
7 mm disc was dipped into the suspension and then placed on the agar
surface; incubation: 24-48 hours at 25-37° C.
^b Grown on minimal nutrient agar

Streptococcus Group 9960 = type: cell-based, Streptococcus pneumoniae; conditions: agar dilution; 2, 5, 17, 22 median of three tests; paired values two experiments
[11] = tested on: Streptococcus pneumoniae Park I; type: cell-based; conditions: agar dilution; 2, 5, 17, 22 median of three tests; paired values two experiments
Staphylococcus aureus = assay: in vivo activity against experimental bacterial infection (ED50); conditions: mice; two doses subcutaneously; dose protecting fifty percent of test animals
Streptococcus pyogenes = assay: as above; conditions: mice, dose protecting fifty percent of test animals; for ED50 Streptococcus pyogenes Oral: two doses orally; for ED50 Streptococcus pyogenes Subcutaneous: two doses subcutaneously

## CCCCCCC(=O)N[C@@H](Cc1c[nH]c2ccccc12)C(=O)N[C@@H](CC(N)=O)C(=O)N[C@@H](CC(=O)O)C(=O)N[C@@H]1C(=O)NCC(=O)N[C@@H](CCCN)C(=O)N[C@@H](CC(=O)O)C(=O)N[C@H](C)C(=O)N[C@@H](CC(=O)O)C(=O)NCC(=O)N[C@H](CO)C(=O)N[C@@H]([C@H](C)CC(=O)O)C(=O)N[C@@H](CC(=O)c2ccccc2N)C(=O)O[C@@H]1C [Compound 1]
[1]
  MIC Staphylococcus aureus X400: 8 µg/mL (≈ 5.07 µM)
[2]
  MIC Streptococcus pneumoniae Group D X66: 128 µg/mL (≈ 81.1 µM)
[3]
  MIC Staphylococcus epidermidis EPI2: 8 µg/mL (≈ 5.07 µM)
[4]
  MIC Staphylococcus aureus X1.1: 8 µg/mL (≈ 5.07 µM)
[5]
  Size of Zone of Inhibition (mm) Micrococcus luteus ATCC 9341: 21 mm
[6]
  Size of Zone of Inhibition (mm) Staphylococcus aureus ATCC 6738P: 17 mm
[7]
  MIC Streptococcus pyogenes C203: 2 µg/mL (≈ 1.27 µM)
Toxicity test (LD50)
  LD50: > 600 mg/kg
[8]
  MIC Staphylococcus aureus V41: 8 µg/mL (≈ 5.07 µM)
[9]
  MIC Staphylococcus epidermidis EPI1: 16 µg/mL (≈ 10.1 µM)
[10]
  Size of Zone of Inhibition (mm) B. subtilis ATCC 6633, grown on minimal nutrient agar: 16 mm
  Size of Zone of Inhibition (mm) Bacillus subtilis ATCC 6633: 15 mm
Streptococcus Group 9960
  MIC Streptococcus pneumoniae Group 9960: 128 µg/mL (≈ 81.1 µM)
[11]
  MIC Streptococcus pneumoniae Park I: 8 µg/mL (≈ 5.07 µM)
Staphylococcus aureus
  ED50 Staphylococcus aureus Subcutaneous: 2.65 mg/kg × 2

## CCCCCCCCC(=O)N[C@@H](Cc1c[nH]c2ccccc12)C(=O)N[C@@H](CC(N)=O)C(=O)N[C@@H](CC(=O)O)C(=O)N[C@@H]1C(=O)NCC(=O)N[C@@H](CCCN)C(=O)N[C@@H](CC(=O)O)C(=O)N[C@H](C)C(=O)N[C@@H](CC(=O)O)C(=O)NCC(=O)N[C@H](CO)C(=O)N[C@@H]([C@H](C)CC(=O)O)C(=O)N[C@@H](CC(=O)c2ccccc2N)C(=O)O[C@@H]1C [Compound 3]
[1]
  MIC Staphylococcus aureus X400: 4 µg/mL (≈ 2.49 µM)
[2]
  MIC Streptococcus pneumoniae Group D X66: 32 µg/mL (≈ 19.9 µM)
[3]
  MIC Staphylococcus epidermidis EPI2: 2 µg/mL (≈ 1.24 µM)
[4]
  MIC Staphylococcus aureus X1.1: 2 µg/mL (≈ 1.24 µM)
[5]
  Size of Zone of Inhibition (mm) Micrococcus luteus ATCC 9341: 18 mm
[6]
  Size of Zone of Inhibition (mm) Staphylococcus aureus ATCC 6738P: 20 mm
[7]
  MIC Streptococcus pyogenes C203: 0.25 µg/mL (≈ 0.156 µM)
Toxicity test (LD50)
  LD50: > 600 mg/kg
[8]
  MIC Staphylococcus aureus V41: 2 µg/mL (≈ 1.24 µM)
[9]
  MIC Staphylococcus epidermidis EPI1: 4 µg/mL (≈ 2.49 µM)
[10]
  Size of Zone of Inhibition (mm) B. subtilis ATCC 6633, grown on minimal nutrient agar: 27 mm
  Size of Zone of Inhibition (mm) Bacillus subtilis ATCC 6633: 16 mm
Streptococcus Group 9960
  MIC Streptococcus pneumoniae Group 9960: 8 µg/mL (≈ 4.98 µM)
[11]
  MIC Streptococcus pneumoniae Park I: 2 µg/mL (≈ 1.24 µM)
Staphylococcus aureus
  ED50 Staphylococcus aureus Subcutaneous: 0.5 mg/kg × 2

## CCCCCCCCCCC(=O)N[C@@H](Cc1c[nH]c2ccccc12)C(=O)N[C@@H](CC(N)=O)C(=O)N[C@@H](CC(=O)O)C(=O)N[C@@H]1C(=O)NCC(=O)N[C@@H](CCCN)C(=O)N[C@@H](CC(=O)O)C(=O)N[C@H](C)C(=O)N[C@@H](CC(=O)O)C(=O)NCC(=O)N[C@H](CO)C(=O)N[C@@H]([C@H](C)CC(=O)O)C(=O)N[C@@H](CC(=O)c2ccccc2N)C(=O)O[C@@H]1C [Compound 5]
[1]
  MIC Staphylococcus aureus X400: 0.5 µg/mL (≈ 0.306 µM)
[2]
  MIC Streptococcus pneumoniae Group D X66: 2 µg/mL (≈ 1.22 µM)
[3]
  MIC Staphylococcus epidermidis EPI2: 0.5 µg/mL (≈ 0.306 µM)
[4]
  MIC Staphylococcus aureus X1.1: 0.25 µg/mL (≈ 0.153 µM)
[5]
  Size of Zone of Inhibition (mm) Micrococcus luteus ATCC 9341: 21 mm
[6]
  Size of Zone of Inhibition (mm) Staphylococcus aureus ATCC 6738P: 19 mm
Streptococcus pyogenes
  ED50 Streptococcus pyogenes Oral: 138 mg/kg × 2
  ED50 Streptococcus pyogenes Subcutaneous: 0.13 mg/kg × 2
[7]
  MIC Streptococcus pyogenes C203: 0.125 µg/mL (≈ 0.0765 µM)
Toxicity test (LD50)
  LD50: > 600 mg/kg
[8]
  MIC Staphylococcus aureus V41: 0.25 µg/mL (≈ 0.153 µM)
[9]
  MIC Staphylococcus epidermidis EPI1: 0.5 µg/mL (≈ 0.306 µM)
[10]
  Size of Zone of Inhibition (mm) B. subtilis ATCC 6633, grown on minimal nutrient agar: 21 mm
  Size of Zone of Inhibition (mm) Bacillus subtilis ATCC 6633: 19 mm
Streptococcus Group 9960
  MIC Streptococcus pneumoniae Group 9960: 0.5 µg/mL (≈ 0.306 µM)
[11]
  MIC Streptococcus pneumoniae Park I: 0.25 µg/mL (≈ 0.153 µM)
Staphylococcus aureus
  ED50 Staphylococcus aureus Subcutaneous: 0.37 mg/kg × 2

## CCCCCCCCCCCCC(=O)N[C@@H](Cc1c[nH]c2ccccc12)C(=O)N[C@@H](CC(N)=O)C(=O)N[C@@H](CC(=O)O)C(=O)N[C@@H]1C(=O)NCC(=O)N[C@@H](CCCN)C(=O)N[C@@H](CC(=O)O)C(=O)N[C@H](C)C(=O)N[C@@H](CC(=O)O)C(=O)NCC(=O)N[C@H](CO)C(=O)N[C@@H]([C@H](C)CC(=O)O)C(=O)N[C@@H](CC(=O)c2ccccc2N)C(=O)O[C@@H]1C [Compound 7]
[1]
  MIC Staphylococcus aureus X400: 0.5 µg/mL (≈ 0.301 µM)
[2]
  MIC Streptococcus pneumoniae Group D X66: 0.03 µg/mL (≈ 0.018 µM)
[3]
  MIC Staphylococcus epidermidis EPI2: 0.5 µg/mL (≈ 0.301 µM)
[4]
  MIC Staphylococcus aureus X1.1: 0.125 µg/mL (≈ 0.0752 µM)
[5]
  Size of Zone of Inhibition (mm) Micrococcus luteus ATCC 9341: 19 mm
[6]
  Size of Zone of Inhibition (mm) Staphylococcus aureus ATCC 6738P: 21 mm
Streptococcus pyogenes
  ED50 Streptococcus pyogenes Oral: 45 mg/kg × 2
  ED50 Streptococcus pyogenes Subcutaneous: 0.046 mg/kg × 2
[7]
  MIC Streptococcus pyogenes C203: 0.25 µg/mL (≈ 0.15 µM)
Toxicity test (LD50)
  LD50: 112 mg/kg
[8]
  MIC Staphylococcus aureus V41: 0.125 µg/mL (≈ 0.0752 µM)
[9]
  MIC Staphylococcus epidermidis EPI1: 0.5 µg/mL (≈ 0.301 µM)
[10]
  Size of Zone of Inhibition (mm) B. subtilis ATCC 6633, grown on minimal nutrient agar: 29 mm
  Size of Zone of Inhibition (mm) Bacillus subtilis ATCC 6633: 17 mm
Streptococcus Group 9960
  MIC Streptococcus pneumoniae Group 9960: 32 µg/mL (≈ 19.2 µM)
[11]
  MIC Streptococcus pneumoniae Park I: 0.25 µg/mL (≈ 0.15 µM)
Staphylococcus aureus
  ED50 Staphylococcus aureus Subcutaneous: 0.54 mg/kg × 2

## CCCCCCCCCCCCN[C@@H](Cc1c[nH]c2ccccc12)C(=O)N[C@@H](CC(N)=O)C(=O)N[C@@H](CC(=O)O)C(=O)N[C@@H]1C(=O)NCC(=O)N[C@@H](CCCN)C(=O)N[C@@H](CC(=O)O)C(=O)N[C@H](C)C(=O)N[C@@H](CC(=O)O)C(=O)NCC(=O)N[C@H](CO)C(=O)N[C@@H]([C@H](C)CC(=O)O)C(=O)N[C@@H](CC(=O)c2ccccc2N)C(=O)O[C@@H]1C [Compound 22, NTrp -(n-dodecyl)-A-21978C nucleus]
[1]
  MIC Staphylococcus aureus X400: 1 µg/mL (≈ 0.612 µM)
[2]
  MIC Streptococcus pneumoniae Group D X66: 4 µg/mL (≈ 2.45 µM)
[3]
  MIC Staphylococcus epidermidis EPI2: 1 µg/mL (≈ 0.612 µM)
[4]
  MIC Staphylococcus aureus X1.1: 0.5 µg/mL (≈ 0.306 µM)
Streptococcus pyogenes
  ED50 Streptococcus pyogenes Oral: > 200 mg/kg × 2
[7]
  MIC Streptococcus pyogenes C203: 0.5 µg/mL (≈ 0.306 µM)
Toxicity test (LD50)
  LD50: > 300 mg/kg
[8]
  MIC Staphylococcus aureus V41: 1 µg/mL (≈ 0.612 µM)
[9]
  MIC Staphylococcus epidermidis EPI1: 1 µg/mL (≈ 0.612 µM)
Streptococcus Group 9960
  MIC Streptococcus pneumoniae Group 9960: 1 µg/mL (≈ 0.612 µM)
[11]
  MIC Streptococcus pneumoniae Park I: 1 µg/mL (≈ 0.612 µM)
Staphylococcus aureus
  ED50 Staphylococcus aureus Subcutaneous: 1.25 mg/kg × 2

Reference: US4537717A
